Reference: patent publication US20220023303A1 (DSM IP Assets B.V., priority 2018, published 2022)

How the values were obtained:
Assay type in all cases: in vivo, humans
U.S. adults [1] = assay: NHANES: self-reported urgency to empty the bowels by total riboflavin intake; settings: highest two quartiles of riboflavin intake, FIG. 4
Description: (§1) For this analysis, data from adults aged 20 years and over in the survey years 2005-2010 were selected. Participants were selected using a complex, multi-stage probability sampling design to produce a representative sample. Demographic information (gender, age, ethnicity, education, poverty-income ratio) was provided by self-report during an interview conducted by a trained interviewer in the participant's home. Questions relating to Bowel Health were administered to adults aged 20 years and older in the mobile examination center by means of a computer-assisted personal interviewing system. […] Pregnancy status in women aged 20 to 44 years was determined by self-report; negative responses were confirmed with a urinary pregnancy test. […]
(§2) The Bowel Health questionnaire in survey cycles 2005-2006 and 2007-2008 consisted of six questions: four relate to the assessment of the Fecal Incontinence Severity Index (Rockwood, et al 1999 Dis Colon Rectum 42, 1525-1532) one question requests participants' self-reported weekly bowel motion frequency, and one question was about normal stool type on the Bristol Stool Scale (Lewis et al 1997 Scand J Gastroenterol 32: 920-924). A Fecal Incontinence Intensity Score (FISI) was calculated and binned into four categories using the RANK procedure to obtain approximately equal categories. […]

U.S. adults [2] = assay: NHANES: normalcy of bowel motion frequency (3-21 bowel motions per week) by riboflavin intake quartiles; settings: as riboflavin intake increases, food and total riboflavin, FIG. 2
Description: as §1, §2

U.S. adults [3] = assay: NHANES 2005-2010 observational analysis: linear regression of self-reported bowel motion frequency on riboflavin intake
Description: Data were obtained from NHANES, a representative survey that measures the health and nutritional status of the U.S. non-institutionalized population. Research protocols were reviewed and approved by the National Center for Health Statistics Research Ethics Review Board (protocol #2005-2006). Ethical review of the protocols used in NHANES protocols is conducted annually, with ongoing changes submitted through an amendment process. All participants gave written consent before participation. Information that could potentially identify participants is removed before data is made publicly available.
For this analysis, data from adults aged 20 years and over in the survey years 2005-2010 were selected. Participants were selected using a complex, multi-stage probability sampling design to produce a representative sample. Demographic information (gender, age, ethnicity, education, poverty-income ratio) was provided by self-report during an interview conducted by a trained interviewer in the participant's home. Questions relating to Bowel Health were administered to adults aged 20 years and older in the mobile examination center by means of a computer-assisted personal interviewing system. Dietary assessment was conducted by means of two 24-hour dietary recalls, the first conducted in-person at the mobile examination center, and the second conducted by telephone 3 to 10 days after the dietary interview but not on the same day of the week. Pregnancy status in women aged 20 to 44 years was determined by self-report; negative responses were confirmed with a urinary pregnancy test. […] For the survey cycles 2007-2010, the total supplemental intake based on the 30 days questionnaire was also used, based on the totals provided in the dataset. Subjects who self-reported inflammatory bowel disease were excluded.
The Bowel Health questionnaire in survey cycles 2005-2006 and 2007-2008 consisted of six questions: four relate to the assessment of the Fecal Incontinence Severity Index (Rockwood, et al 1999 Dis Colon Rectum 42, 1525-1532) one question requests participants' self-reported weekly bowel motion frequency, and one question was about normal stool type on the Bristol Stool Scale (Lewis et al 1997 Scand J Gastroenterol 32: 920-924). A Fecal Incontinence Intensity Score (FISI) was calculated and binned into four categories using the RANK procedure to obtain approximately equal categories. In the 2009-2010 survey cycle, questions about bowel evacuation urgency, constipation and diarrhea incidence over the previous year, and laxative use over the past 30 days, were added.
Statistical analyses were performed using SAS version 9.3 (SAS Institute Inc., Cary, N.C., USA). Statistical significance was set at 0.05.
Gender, ethnicity, education, age (continuous), Poverty-Income Ratio (PIR, continuous) were included in the socio-demographic chunk, and vigorous physical activity over the past 30 days (Y/N), dietary supplement use (Y/N), fiber and moisture intake (continuous), self-report of thyroid problems (Y/N) and use of prescription medication (1 or less vs 2 or more) were included in the diet and health chunk.
The final linear regression using significant predictors was performed using […] to generate the correct variance estimation that takes the complex survey design into account.

U.S. adults [4] = assay: NHANES: self-reported common stool type (Bristol Stool Scale) by quartiles of riboflavin intake; settings: as riboflavin intake increases (quartiles), FIG. 1
Description: as §1, §2

[5] = Adjusted model (demographics): gender, age, education, Poverty-Income Ratio, ethnicity
[6] = Adjusted model (diet/health): prescription medications, thyroid problem, fiber and moisture intake
[7] = Adjusted model (full): all variables

Cc1cc2nc3c(=O)[nH]c(=O)nc-3n(C[C@H](O)[C@H](O)[C@H](O)CO)c2cc1C [riboflavin] was tested, and the “Number of respondents reporting bowel motion urgency occurs "rarely"” value (U.S. adults [1]) was “significant increase”, the “Proportion of the population with normal bowel motion patterns” value (U.S. adults [2]) was “increases” and the “Beta-coefficient, bowel motion frequency, DS riboflavin intake” value (“Beta-coefficient … DS riboflavin intake” below) (U.S. adults [3]; [5]) was 0.0108. For the same compound, the “Beta-coefficient, bowel motion frequency, Food riboflavin intake” value (“Beta-coefficient … Food riboflavin intake” for short) (U.S. adults [3]; [5]) was 0.253, the “Beta-coefficient, bowel motion frequency, Total riboflavin intake” value (“Beta-coefficient … Total riboflavin intake” below) (U.S. adults [3]; [5]) was 0.0130 and the “Beta-coefficient … DS riboflavin intake” value (U.S. adults [3]; [6]) was 0.00807. The “Beta-coefficient … Food riboflavin intake” value (U.S. adults [3]; [6]) was 0.0465, the “Beta-coefficient … Total riboflavin intake” value (U.S. adults [3]; [6]) was 0.00684 and the “Beta-coefficient … DS riboflavin intake” value (U.S. adults [3]; [7]) was 0.00895. For the same compound, the “Beta-coefficient … Food riboflavin intake” value (U.S. adults [3]; [7]) was 0.0191, the “Beta-coefficient … Total riboflavin intake” value (U.S. adults [3]; [7]) was 0.00974 and the “Beta-coefficient … Food riboflavin intake” value (U.S. adults [3]; Crude model) was 0.355. For the same compound, the “Beta-coefficient … Total riboflavin intake” value (U.S. adults [3]; Crude model) was 0.0113, the “Beta-coefficient … DS riboflavin intake” value (U.S. adults [3]; Crude model, dietary supplements) was 0.0101 and the “Riboflavin intake at which effect on bowel health parameters was seen” value (U.S. adults [3]; above the median intake) was greater than 2.1 mg/day. The “Relationship between food riboflavin intake and bowel motion frequency” value (U.S. adults [3]; after adjusting for socio-demographic, diet and lifestyle co-factors) was “not significant”, the “Relationship between riboflavin intake and bowel motion frequency” value (U.S. adults [3]; crude model, intakes from food, dietary supplements and in total) was “significant, positive relationship” and the “Relationship between total riboflavin intake and bowel motion frequency, stratified by fiber intake” value (U.S. adults [3]; dietary fiber intake low, less than the median) was “no significant relationship”. The “Change in bowel motion frequency with riboflavin” value (U.S. adults [3]; fibre intakes in the upper three quartiles (above 9 g/day)) was “Increases”, the “Relationship between riboflavin intake from dietary supplements and in total, and bowel motion frequency” value (U.S. adults [3]; fully adjusted model) was “significant, positive relationship” and the “Riboflavin intake at which effect on bowel health parameters was especially seen” value (U.S. adults [3]; highest quartile of riboflavin intake) was greater than 3.1 mg/day. For the same compound, the “Relationship between total riboflavin intake and bowel motion frequency, stratified by fiber intake” value (U.S. adults [3]; top two quartiles of dietary fiber intake) was “only significant”, the “Change in stool type 4 (normal defecation)” value (U.S. adults [4]) was “increase” and the “Change in stool types 2 (slow transit time) and 5 (soft-fluid stool)” value (U.S. adults [4]) was “reduction”.
